This passage reports IC50 results from US20250154105A1, “POLYCYCLIC COMPOUND AND USE THEREOF” (TYK MEDICINES, INC., priority 2021, published 2025).

The subject of experiment [1] is human pleural mesothelioma cells NCI-H226. The experiment in a line: Cell anti-proliferation experiment (CCK8), NCI-H226. Type of experiment: cell-based. From the text:
TEST EXAMPLE 1 CELL ANTI-PROLIFERATION EXPERIMENT
Determination of proliferation inhibition of YAP-TEAD inhibitor compounds on human pleural mesothelioma cells NCI-H226
Experimental materials and equipments: Human pleural mesothelioma cells NCI-H226 was purchased from NANJING COBIOER BIOSCIENCES CO., LTD. RPMI-1640 medium (Bio-Channel), DMSO (dimethyl sulfoxide), CCK8 (WST-8) Cell Assay Kit (Beyotime), 0.25% EDTA-Tripsin (trypsin digest), 1×PBS (phosphate buffer, PH7.2), 96-well plate (Corning), fetal bovine serum (FBS), 10,000 U/mL penicillin-G/streptomycin, high-speed freezing centrifuge (EPPENDORF 5810R), enzyme-linked immunosorbent assay (Tecan Spark).
1. Cell plating • A) Tumor cells were cultured to 80-90% density in RPMI-1640 (containing 10% FBS and 100 U/mL penicillin-G/streptomycin) under the condition of 37° C., 5% CO2 and saturated humidity. • B) The culture medium was removed from the 10 cm culture dish. • C) Cells were washed with 10 ml 1×PBS. • D) 4 ml of 0.25% EDTA-Tripsin was added to digest pancreatin for 5 minutes in an incubator at 37° C. and 5% CO2. Then the mixture was transferred to a 15 ml centrifuge tube, and centrifuged for 5 minutes at 200 g. The supernatant was discarded to obtain cell precipitation. • E) The cell precipitation was resuspended with 4 ml of […], counted and adjusted to 10,000 cells/ml. • F) The cell suspension was added to a 96-well plate with a volume of 100 μL per well and cultured overnight in an incubator at 37° C. and 5% CO2.
• Compound dilution • A) Preparation of gradient dilution solutions of the tested compounds: the tested compounds was configured to 1 mM stock solution. Then […] of stock solution was dissolved in 1.5 ml of DMSO-free culture solution, and then 3-fold continuous gradient dilution with 0.1% DMSO culture solution was performed to get a total of 9 concentrations. The diluted concentrations of the compound were as follows: 333.33 nM, 111.11 nM, 37.03 nM, 12.35 nM, 4.15 nM, 1.37 nM, 0.46 nM, 0.15 nM • B) After full mixing, 100 μL of culture compound solution was taken to replace the culture solution in the cell culture plate, with 4 duplicated wells at each concentration; • C) The cells were transferred to the incubator to incubate for 3 days.
• A) the cell culture plate was taken out and added with 10 μl of CCK-8 (WST-8) solution per well in the biosafety cabinet; • B) The cell culture plate was put back into the incubator and continued to incubate for 3 hours; • C) 450 nm wavelength was selected to measure absorbance value on TECAN enzyme linked immunosorbent assay detector.
The following formula was used to calculate the cell viability (% Cell Viability); • Cell Viability (%)=[A(Drug-added)-A(Blank)]/[A(0 Drug-added)-A(blank)][…] • A (Drug-added): The absorbance of wells containing cells, CCK8 solution, and drug solution. • A (Blank): The absorbance of wells containing culture medium and CCK8 solution, but without cells. • A (0 Drug-added): The absorbance of wells containing cells, CCK8 solution, but without drug solution. • Cell viability: Cell proliferation viability or cytotoxicity viability was determined by the IC50 value obtained by curve fitting using GraphPad Prism 8 software.

A further experiment concerns YAP-TEAD. The experiment is described as follows: YAP-TEAD inhibitor activity by Nano luciferase method (8xGTiiC-nLuc reporter in 293T cells). Type of experiment: cell-based. The following applies: Homo sapiens, HEK-293T, 48 hours incubation, read-out: Nano-luciferase detection (IC50). From the text: EXAMPLE 2: YAP-TEAD INHIBITOR ACTIVITY WAS DETECTED BY NANO LUCIFERASE METHOD
(1) Experimental materials and equipments: 293T cells were purchased from NANJING COBIOER BIOSCIENCES CO., LTD. DMEM medium (High sugar, no phenol red, Bio-Channel), DMSO (dimethyl sulfoxide), Lipo6000™ transfection reagent (Beyotime), pGL3B-8xGTiiC-nLuc-CMV-fLuc plasmid, 0.25% EDTA-Tripsin (trypsin digest), 1×PBS (phosphate buffer, PH7.2), 96-well white cell culture plate (PerkinElmer), fetal bovine serum (FBS), 10,000 U/mL penicillin-G/streptomycin, high-speed freezing centrifuge (EPPENDORF 5810R), 37° C. CO2 incubator, Vi-cell® Cell Counter, Envision Microplate Reader (PerkinElmer).
The revived 293T cells were inoculated into a 10 cm culture dish and placed in an incubator with 5% CO2, and cultured at constant temperature of 37° C. To ensure transfection efficiency, cells at logarithmic phase (cell density of approximately 50%-70%) should be used.
On the day before transfection, cells at the logarithmic phase were digested with Trypsin-EDTA, and culture medium was added to terminate digestion. The cell suspension was prepared by blowing and mixing using a pipette.
Cell concentration was measured using Vi-cell, and the cell suspension was diluted to a suspension of 5*10^^5 cells per milliliter. After preparing the cell suspension, the suspension was gently mixed. 10 ml of liquid was added to a 10 cm culture dish. In this way, the number of cells in each 10 cm culture dish was 5*10^^6. The cells were incubated at a constant temperature of 37° C. for 1 day in an incubator with 5% CO2.
Two clean and sterile centrifuge tubes were taken and added with 750 μL opti-MEM Medium without antibiotics and serum, respectively. Then one tube was added with 15 μg Plasmid (pGL3B-8xGTiiC-nLuc-CMV-fLuc), and gently blew and mixed well using a pipette; the other tube was added with Lipo6000 transfection reagent, and gently blew and mixed using a pipette. After standing at room temperature for 5 minutes, the culture solution containing DNA was added gently to the culture solution containing Lipo6000 transfection reagent, and mixed well by gently inverting the centrifuge tube, then standing at room temperature for 5 minutes.
The above mixture was added evenly to a 10 cm culture dish and replaced with fresh complete culture medium after 6 hours of cultivation.
After transfection for 1 day, cells were digested with Trypsin EDTA, and culture medium was added to terminate the digestion. The cell suspension was prepared by blowing and mixing using a pipette.
Cell concentration was measured using Vi-cell, and the cell suspension was diluted to a suspension of 20000 cells per milliliter.
After preparing the cell suspension, the suspension was gently mixed, and added to 96-well plate with 100 μL per well. Thus, the density of the cells to be tested is 2000 cells per well.
The inoculated cell culture plate was placed in the incubator for cultivation, and after about 24 hour, compounds with concentration gradient were added.
10 mM compound stock solution was diluted with culture medium to 50 μM. Compound solution of 50 μM was added to the third column of the deep well plate, 216 μL of culture medium containing 0.5% DMSO was added to the fourth to eleventh columns, successively.
Gradient dilution: taking 100 μL of solution from the third column and adding the solution to the fourth column and mixing well; then taking 100 µL of solution from the fourth column again and adding the solution to the fifth column, repeating this operation until the eleventh column.
Taking 25 μL of compound solution from the deep well plate and adding it to a 96-well culture plate using a multi-channel pipette. Repeating four times on the 96 well plate for each compound. Finally, a concentration gradient of 1:3.16 was formed in the 96-well plate with a maximum concentration of 10,000 nM. The • (5) Addition of Nano Luciferase Detection Reagent and Read […]

Where only a bound is given, the exact number is not on record here.

In general, IC50 refers to the concentration needed to halve the response being measured. `Cn1cc2c(=O)n(-c3ccc(C(F)(F)F)cc3)c3ccc(C(=O)NC(C)(C)C)cc3c2n1` [Example T-101]: the IC50 (in experiment [1]; in the experiment on YAP-TEAD) was ≤ 1000 nM each time.

For `Cn1cc2c(=O)n(-c3ccc(C(F)(F)F)cc3)c3ccc(C(=O)NC4CC4)cc3c2n1` [Example T-102], the IC50 (in experiment [1]; in the experiment on YAP-TEAD) was ≤ 1000 nM throughout.

Turning to `COCC(C)NC(=O)c1ccc2c(c1)c1nn(C)cc1c(=O)n2-c1ccc(C(F)(F)F)cc1` (stereo not shown) [Example T-107], the IC50 (in experiment [1]; with YAP-TEAD) was ≤ 1000 nM in each case.

As for `Cn1cc2c(=O)n(-c3ccc(C(F)(F)F)cc3)c3ccc(C(=O)O)cc3c2n1` [Example T-110], the IC50 (in experiment [1]; in the experiment with YAP-TEAD) was 1000 to 5000 nM each time.

As to `CNC(=O)c1ccc2c(c1)c1nn(C)cc1c(=O)n2-c1ccc(C(F)(F)F)cc1` [Example T-111], the half-inhibitory concentration (IC50) (in experiment [1]; in the experiment with YAP-TEAD) was ≤ 1000 nM each time.

Regarding `Cn1cc2c(=O)n(-c3ccc(C(F)(F)F)cc3)c3ccc(C(=O)NCc4ccccn4)cc3c2n1` [Example T-113], the IC50 (in experiment [1]; in the experiment with YAP-TEAD) was ≤ 1000 nM in each case.

For `Cn1cc2c(=O)n(-c3ccc(C(F)(F)F)cc3)c3ccc(C(N)=O)cc3c2n1` [Example T-114], the IC50 is ≤ 1000 nM in experiment [1] and 1000 to 5000 nM in the experiment on YAP-TEAD.

As for `CN(C)Cc1cccc(NC(=O)c2ccc3c(c2)c2nn(C)cc2c(=O)n3-c2ccc(C(F)(F)F)cc2)c1` [Example T-115], the IC50 (in experiment [1]; with YAP-TEAD) was 1000 to 5000 nM in each case.

As to `CN(C)CCCNC(=O)c1ccc2c(c1)c1nn(C)cc1c(=O)n2-c1ccc(C(F)(F)F)cc1` [Example T-118], the IC50 (in experiment [1]; with YAP-TEAD) was 1000 to 5000 nM throughout.

`CNC[C@H](C)NC(=O)c1ccc2c(c1)c1nn(C)cc1c(=O)n2-c1ccc(C(F)(F)F)cc1` [Example T-120]: the IC50 (in experiment [1]; in the experiment on YAP-TEAD) was 1000 to 5000 nM each time.

Take `Cn1cc2c(=O)n(-c3ccc(C(F)(F)F)cc3)c3ccc(C(=O)Nc4c[nH]cn4)cc3c2n1` [Example T-121]: the IC50 (in experiment [1]; in the experiment with YAP-TEAD) was 1000 to 5000 nM each time.

For `C[C@H](NC(=O)c1ccc2c(c1)c1nn(C)cc1c(=O)n2-c1ccc(C(F)(F)F)cc1)c1ccc(C(F)(F)F)cn1` [Example T-123], the IC50 (in experiment [1]; in the experiment with YAP-TEAD) was 1000 to 5000 nM throughout.

As for `Cc1ccc([C@H](C)NC(=O)c2ccc3c(c2)c2nn(C)cc2c(=O)n3-c2ccc(C(F)(F)F)cc2)nc1` [Example T-124], the IC50 (in experiment [1]; with YAP-TEAD) was 1000 to 5000 nM each time.

On to `C[C@@H](NC(=O)c1ccc2c(c1)c1nn(C)cc1c(=O)n2-c1ccc(C(F)(F)F)cc1)c1ncccc1F` [Example T-125], for which the IC50 (in experiment [1]; with YAP-TEAD) was 1000 to 5000 nM each time.

On to `C[C@H](NC(=O)c1ccc2c(c1)c1nn(C)cc1c(=O)n2-c1ccc(C(F)(F)F)cc1)c1ncccc1F` [Example T-126], for which the IC50 (in experiment [1]; with YAP-TEAD) was ≤ 1000 nM throughout.

For the compound `C[C@@H](NC(=O)c1ccc2c(c1)c1nn(C)cc1c(=O)n2-c1ccc(C(F)(F)F)cc1)c1ccc(F)cn1` [Example T-127], the IC50 (in experiment [1]; with YAP-TEAD) was 1000 to 5000 nM in each case.

As to `C[C@H](NC(=O)c1ccc2c(c1)c1nn(C)cc1c(=O)n2-c1ccc(C(F)(F)F)cc1)c1cc(Cl)ccn1` [Example T-128], the IC50 (in experiment [1]; in the experiment on YAP-TEAD) was ≤ 1000 nM each time.

In the case of `C[C@H](NC(=O)c1ccc2c(c1)c1nn(C)cc1c(=O)n2-c1ccc(C(F)(F)F)cc1)c1ccc(Cl)cn1` [Example T-130], the IC50 (in experiment [1]; in the experiment with YAP-TEAD) was 1000 to 5000 nM throughout.

Turning to `C[C@H](NC(=O)c1ccc2c(c1)c1nn(C)cc1c(=O)n2-c1ccc(C(F)(F)F)cc1)c1cccc(Cl)n1` [Example T-132], the IC50 (in experiment [1]; in the experiment on YAP-TEAD) was 1000 to 5000 nM each time.

For `Cn1cc2c(=O)n(-c3ccc(C(F)(F)F)cc3)c3ccc(C(=O)NCc4ccncn4)cc3c2n1` [Example T-133], the IC50 (in experiment [1]; in the experiment on YAP-TEAD) was 1000 to 5000 nM in each case.

On to `COc1cccc([C@H](C)NC(=O)c2ccc3c(c2)c2nn(C)cc2c(=O)n3-c2ccc(C(F)(F)F)cc2)n1` [Example T-134], for which the IC50 (in experiment [1]; in the experiment on YAP-TEAD) was ≤ 1000 nM throughout.

Take `COc1cccnc1[C@@H](C)NC(=O)c1ccc2c(c1)c1nn(C)cc1c(=O)n2-c1ccc(C(F)(F)F)cc1` [Example T-135]: the IC50 (in experiment [1]; in the experiment on YAP-TEAD) was 1000 to 5000 nM throughout.

For the compound `COc1ccnc([C@@H](C)NC(=O)c2ccc3c(c2)c2nn(C)cc2c(=O)n3-c2ccc(C(F)(F)F)cc2)c1` [Example T-136], the half-maximal inhibitory concentration (IC50) (in experiment [1]; with YAP-TEAD) was 1000 to 5000 nM each time.

On to `C[C@H](NC(=O)c1ccc2c(c1)c1nn(C)cc1c(=O)n2-c1ccc(C(F)(F)F)cc1)c1ccccc1` [Example T-138], for which the IC50 (in experiment [1]; in the experiment on YAP-TEAD) was ≤ 1000 nM each time.

As to `Cn1cc2c(=O)n(-c3ccc(C(F)(F)F)cc3)c3ccc(C(=O)NCc4ncccn4)cc3c2n1` [Example T-139], the IC50 (in experiment [1]; with YAP-TEAD) was 1000 to 5000 nM in each case.

For `Cn1cc2c(=O)n(-c3ccc(C(F)(F)F)cc3)c3ccc(C(=O)NCc4cnccn4)cc3c2n1` [Example T-140], the IC50 (in experiment [1]; with YAP-TEAD) was 1000 to 5000 nM in each case.
